Structures are written as SMILES.

In this data set the test system is TK6 cells. As to the kind of experiment: Cell cycle analysis (flow cytometry, DAPI). It is filed as cell-based, human. The following applies: without S9, CBG 30 µM, CBD 15 µM, CBDV 40 µM. As for the experimental part:
The cells were treated with CBG 30 µM, CBD 15 µM, CBC 15 µM, CBDV 40 µM, and CBN 15 µM for 6 or 24 h. The positive control was vincristine sulphate in a concentration of 0.0121 µM for 6 h of exposure and 0.0061 µM for 24 h. The solvent control was DMSO. Furthermore, experiments with the addition of S9 mix were performed with CBDV. In these experiments, cells were treated with CBDV (40 µM) with or without 0.25% S9 mix for 6 h. DMSO with or without the S9 mix was used as control, and the positive control was the same as mentioned above. After the treatment, cells were collected, washed twice with phosphate buffered saline (PBS) and fixed with 70% ethanol for 30 min on ice. Following each described step above, cells were centrifuged at 1000 rpm, 5 min, and 4 °C. Lastly, cells were resuspended in 1% bovine serum albumin (BSA) in PBS solution and stained with DAPI in a final concentration of 1 µg/mL for 30 min on ice. The cell distribution in different cell cycle phases was analyzed with MACSQuant® Analyzer 16 Flow Cytometer using a 450/50 nm filter and MACSQuantify™ Software 2.13 (Miltenyi Biotec, Bergisch Gladbach, Germany). For each sample, 20 000 events were analyzed. Four independent experiments were performed for 6 h of treatment without metabolic activation. Three independent experiments were done for 24 h of treatment without metabolic activation and 6 h of treatment with metabolic activation.

On to `C=C(C)[C@@H]1CCC(C)=C[C@H]1c1c(O)cc(CCCCC)cc1O` [CBD, cannabidiol], for which the “Cell cycle distribution, 6 h” value (6 h, CBC 15 µM, CBN 15 µM) was “no significant changes in the normal cell cycle distribution”. For the same compound, the “Cell cycle distribution, 24 h” value (24 h) is “accumulation of cells in the G1 phase”.

(Values after paper PMC11402852, “Genotoxicity of selected cannabinoids in human lymphoblastoid TK6 cells” (Archives of Toxicology, 2024).)
